This is an account of results in patent EP4471048A1, “PEPTIDE INHIBITORS OF INTERLEUKIN-23 RECEPTOR” (Zealand Pharma A/S, priority 2023, dated 2024).

*1 amine or outer side, *2 acyl side, *3 side chain or, on linkers, in order; H or OH if unused. Where a SMILES comes first, the peptide text is derived from it. Bridges are numbered along the chain shown (N, C = ends). [ ]: non-standard residue; d: D form. hAad = O=C([C@H](CCCCC(=O)[*:3])N[*:1])[*:2]; X8 = O=C(CC[C@@H](N[*:2])C(=O)[*:3])[*:1]; X17 = O=C(C[C@@H](CCCN[*:3])N[*:2])[*:1]; 2Nal = N[C@@H](Cc1ccc2ccccc2c1)C(=O)O; AEF = NCCOc1ccc(C[C@H](N)C(=O)O)cc1; 3Pal = N[C@@H](Cc1cccnc1)C(=O)O; αMeL = CC(C)C[C@](C)(N)C(=O)O; dDab = NCC[C@@H](N)C(=O)O; Dab = NCC[C@H](N)C(=O)O

The experiment addresses T1, human IL-23R (Homo sapiens, UniProt Q5VWK5).
T1 sequence (Q5VWK5 22-629): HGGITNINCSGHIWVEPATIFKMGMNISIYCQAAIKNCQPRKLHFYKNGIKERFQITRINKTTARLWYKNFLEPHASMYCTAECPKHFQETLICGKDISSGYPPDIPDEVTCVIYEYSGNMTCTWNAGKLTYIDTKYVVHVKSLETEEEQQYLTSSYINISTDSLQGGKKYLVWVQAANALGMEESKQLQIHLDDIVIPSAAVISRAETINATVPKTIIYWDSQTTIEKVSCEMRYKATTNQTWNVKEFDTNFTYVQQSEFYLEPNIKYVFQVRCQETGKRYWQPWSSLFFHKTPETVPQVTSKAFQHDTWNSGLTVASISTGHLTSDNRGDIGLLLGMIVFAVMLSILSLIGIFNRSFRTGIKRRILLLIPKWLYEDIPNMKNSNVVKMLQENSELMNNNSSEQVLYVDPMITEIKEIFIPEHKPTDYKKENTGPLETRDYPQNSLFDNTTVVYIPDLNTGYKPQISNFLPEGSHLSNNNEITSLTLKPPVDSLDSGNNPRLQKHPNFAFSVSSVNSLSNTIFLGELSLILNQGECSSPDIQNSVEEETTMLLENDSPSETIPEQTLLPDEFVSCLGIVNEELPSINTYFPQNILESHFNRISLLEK
In words: biochemical. The following applies: for Emax: read-out: % displacement (hIL-23R NIuc). Summed up: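 BRET displacement of a TAMRA-labelled reference compound from N-terminal Nanoluc-IL-23R fusion protein in membranes from stably transfected HEK293 cells. Incubation 2 h at room temperature, then Nanoluc substrate was added and the TAMRA/Nanoluc ratio read. IC50 and maximal displacement came from 4-parameter logistic fits.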

The IC50 is the concentration at which inhibition is half-maximal. Read a high IC50 as weaker potency in that assay. In the case of `CC(C)C[C@]1(C)NC(=O)[C@H](Cc2ccc3ccccc3c2)NC(=O)[C@H](Cc2ccc(OCCN)cc2)NC(=O)[C@@H]2CCC(=O)N[C@H](CCCNC(=O)CC[C@@H](C(=O)N[C@@H](CCN)C(=O)N[C@@H](Cc3cccnc3)C(N)=O)NC1=O)CC(=O)N[C@@H]([C@@H](C)O)C(=O)N[C@@H](Cc1c[nH]c3ccccc13)C(=O)N[C@@H](CCC(N)=O)C(=O)N2` [Compound 14, [{d}bLys](1c)(6c)^†TWQE(6c)[Y(2-aminoethoxy)][2-Nal][2-Me-Leu]E(1c)[Dab][3-(3-Pyridyl)-Ala]-[NH2]] (TWQE[AEF][2Nal][αMeL]E[Dab][3Pal]-NH2; linker N-4-8 via X17), 440 pM corresponded to half-maximal inhibition (IC50) and the Emax is 101%.
As to `CC(C)C[C@]1(C)NC(=O)[C@H](Cc2ccc3ccccc3c2)NC(=O)[C@H](Cc2ccc(OCCN)cc2)NC(=O)[C@@H]2CC(=O)N[C@H](CCNC(=O)CCCC[C@@H](C(=O)N[C@@H](CCN)C(=O)N[C@@H](Cc3cccnc3)C(N)=O)NC1=O)C(=O)N[C@@H]([C@@H](C)O)C(=O)N[C@@H](Cc1c[nH]c3ccccc13)C(=O)N[C@@H](CCC(N)=O)C(=O)N2` [Compound 15, [{d}Dab](1c)(6c)^†TWQD(6c)[Y(2-aminoethoxy)][2-Nal][2-Me-Leu][2-Amino-6-carboxyhexanoyl](1 c)[Dab][3-(3-Pyridyl)-Ala]-[NH2]] ([dDab]TWQD[AEF][2Nal][αMeL][hAad][Dab][3Pal]-NH2; lactam 1-9, N-5), the Emax worked out at 105%.
As to `CCCCc1ccc(C[C@@H]2NC(=O)[C@@H]3CCC(=O)N[C@@H](CCCCNC(=O)CC[C@@H](C(=O)N[C@@H](CCN)C(=O)N[C@@H](Cc4cccnc4)C(=O)NC)NC(=O)[C@](C)(CC(C)C)NC(=O)[C@H](Cc4ccc5ccccc5c4)NC2=O)C(=O)N[C@@H]([C@@H](C)CC)C(=O)N[C@@H](C(C)C)C(=O)N[C@@H](Cc2c[nH]c4ccccc24)C(=O)N[C@@H](CCC(N)=O)C(=O)N3)cc1` [Compound 33, K(1c)(6c)^†IVWQE(6c)[F(4-Bu)][2-Nal][2-Me-Leu]E(1c)[Dab][3-(3-Pyridyl)-Ala]-[NHMe]], the IC50 was 760 pM and the Emax was found to be 102%.
On to `CC(C)C[C@]1(C)NC(=O)[C@H](Cc2ccc3ccccc3c2)NC(=O)[C@H](Cc2ccc(OCCN)cc2)NC(=O)[C@@H]2CC(=O)N[C@H](CCCNC(=O)CC[C@@H](C(=O)N[C@@H](CCN)C(=O)N[C@@H](Cc3cccnc3)C(N)=O)NC1=O)CC(=O)N[C@@H]([C@@H](C)O)C(=O)N[C@@H](Cc1c[nH]c3ccccc13)C(=O)N[C@@H](CCC(N)=O)C(=O)N2` [Compound 13, [{d}bLys](1c)(6c)^†TWQD(6c)[Y(2-aminoethoxy)][2-Nal][2-Me-Leu]E(1c)[Dab][3-(3-Pyridyl)-Ala]-[NH2]] (TWQD[AEF][2Nal][αMeL]E[Dab][3Pal]-NH2; linker N-4-8 via X17), for which the “% displacement (hIL-23R NIuc)” value came to 101% and the IC50 amounted to 1400 pM.
In the same order, the values of `CC[C@H](C)[C@@H]1NC(=O)[C@@H]2CCCCNC(=O)CC[C@@H](C(=O)NCCCCc3cccnc3)NC(=O)[C@](C)(C(C)C)NC(=O)[C@H](Cc3ccc4ccccc4c3)NC(=O)[C@H](Cc3ccc(OCCN)cc3)NC(=O)[C@H](CCC(=O)N2)NC(=O)[C@H](CCC(N)=O)NC(=O)[C@H](Cc2c[nH]c3ccccc23)NC(=O)[C@H](C(C)C)NC1=O` [Compound 28, K(1c)(6c)^†IVWQE(6c)[Y(2-aminoethoxy)][2-Nal][2-Me-Val]E(1c)-[NH-4-(pyridin-3-yl)butanyl]] are 97% and 200000 pM.
Turning to `CNC(=O)[C@H](Cc1cccnc1)NC(=O)[C@H](CCN)NC(=O)[C@@H]1CCCCNC(=O)[C@H]2CCC(=O)N[C@@H](Cc3c[nH]c4ccccc34)C(=O)N[C@@H](CCC(N)=O)C(=O)N[C@@H](CCC(=O)N2)C(=O)N[C@@H](Cc2ccc(OCCN)cc2)C(=O)N[C@@H](Cc2ccc3ccccc3c2)C(=O)N[C@@](C)(CC(C)C)C(=O)N1` [Compound 108, [{d}iso-Glu](1c)^‡(6c)^†WQE(6c)[Y(2-aminoethoxy)][2-Nal][2-Me-Leu]K(1c)[Dab][3-(3-Pyridyl)-Ala]-[NHMe]] (WQE[AEF][2Nal][αMeL]K[Dab][3Pal]-NHMe; linker N-3-7 via X8), it took 16000 pM to reach half-maximal inhibition (IC50) and the Emax was determined as 101%.
`COc1ccc(C[C@@H]2NC(=O)[C@@H]3CCC(=O)N[C@@H](CCCCNC(=O)CC[C@@H](C(=O)N[C@@H](CCCCNC(=O)CCc4ncc[nH]4)C(N)=O)NC(=O)[C@](C)(CC(C)C)NC(=O)[C@H](Cc4ccc5ccccc5c4)NC2=O)C(=O)N[C@@H]([C@@H](C)O)C(=O)N[C@@H](C(C)C)C(=O)N[C@@H](Cc2c[nH]c4ccccc24)C(=O)N[C@@H](CCC(N)=O)C(=O)N3)cc1` [Compound 59, K(1c)(6c)^†TVWQE(6c)[Y(Me)][2-Nal][2-Me-Leu]E(1c)[K(Imidazolepropanoyl)]-[NH2]] came in with an IC50 of 330000 pM.
Take `CC(C)C[C@]1(C)NC(=O)[C@H](Cc2ccc3ccccc3c2)NC(=O)[C@H](Cc2ccc(OCCN)cc2)NC(=O)[C@@H]2CCC(=O)N[C@@H](CCCCCNC(=O)CC[C@@H](C(=O)N[C@@H](CCN)C(=O)N[C@@H](Cc3cccnc3)C(N)=O)NC1=O)C(=O)N[C@@H]([C@@H](C)O)C(=O)N[C@@H](C(C)C)C(=O)N[C@@H](Cc1c[nH]c3ccccc13)C(=O)N[C@@H](CCC(N)=O)C(=O)N2` [Compound 4, [hLys](1c)(6c)^†TVWQE(6c)[Y(2-aminoethoxy)][2-Nal][2-Me-Leu]E(1c)[Dab][3-(3-Pyridyl)-Ala]-[NH2]]: the IC50 turned out to be 29 pM and the Emax was determined as 102%.
In the same order, the values of `CNC(=O)[C@H](Cc1cccnc1)NC(=O)[C@H](Cc1ccncc1)NC(=O)[C@@H]1CCC(=O)NCCCC[C@@H]2NC(=O)CC[C@H](NC(=O)[C@H](CCC(N)=O)NC(=O)[C@H](Cc3c[nH]c4ccccc34)NC(=O)CCNC2=O)C(=O)N[C@@H](Cc2ccc(OCCN)cc2)C(=O)N[C@@H](Cc2ccc3ccccc3c2)C(=O)N[C@@](C)(CC(C)C)C(=O)N1` [Compound 89, K(1c)(6c)^†[3-Aminopropanoyl]WQE(6c)[Y(2-aminoethoxy)][2-Nal][2-Me-Leu]E(1 c)[3-(4-Pyridyl)-Ala][3-(3-Pyridyl)-Ala]-[NHMe]] are 40 pM and 100%.
Consider `CC(C)C[C@]1(C)NC(=O)[C@H](Cc2ccc3ccccc3c2)NC(=O)[C@H](Cc2ccc(OCCN)cc2)NC(=O)[C@@H]2CCC(=O)N[C@H](CCCCCNC(=O)CC[C@@H](C(=O)N[C@@H](CCN)C(=O)N[C@@H](Cc3cccnc3)C(N)=O)NC1=O)C(=O)N[C@@H]([C@@H](C)O)C(=O)N[C@@H](C(C)C)C(=O)N[C@@H](Cc1c[nH]c3ccccc13)C(=O)N[C@@H](CCC(N)=O)C(=O)N2` [Compound 5, [{d}hLys](1c)(6c)^†TVWQE(6c)[Y(2-aminoethoxy)][2-Nal][2-Me-Leu]E(1c)[Dab][3-(3-Pyridyl)-Ala]-[NH2]], for which the IC50 came to 37 pM and the Emax worked out at 98%.
The matching figures for `CC[C@H](C)[C@@H]1NC(=O)[C@@H]2CCCCNC(=O)CC[C@@H](C(=O)N[C@@H](CCN)C(=O)N[C@@H](Cc3cccnc3)C(N)=O)NC(=O)[C@](C)(C(C)C)NC(=O)[C@H](Cc3ccc4ccccc4c3)NC(=O)[C@H](Cc3ccc(C)cc3)NC(=O)[C@H](CCC(=O)N2)NC(=O)[C@H](CCC(N)=O)NC(=O)[C@H](Cc2c[nH]c3ccccc23)NC(=O)[C@H](C(C)C)NC1=O` [Compound 16, K(1c)(6c)^†IVWQE(6c)[F(4-Me)][2-Nal][2-Me-Val]E(1c)[Dab][3-(3-Pyridyl)-Ala]-[NH2]]: 99 pM and 101%.
